The target in one data set is PpArsN1 (Pseudomonas putida, UniProt Q88LK7). Conditions: for PpArsN1 Specific activity: Substrate 50 μM, 37° C.
A further data set has as its system E. coli AW3110. Briefly: microbe, parasite or virus in culture. The format is cell-based, Escherichia coli. Conditions: for IC50: read-out: concentration giving 50% inhibition.
The target of data set [1] is phosphinothricin N-acetyltransferase (SvPAT) (Streptomyces viridochromogenes, UniProt Q57146). Briefly: N-acetyltransferase assay (DTNB) with SvPAT. The data set is classed as biochemical, Streptomyces viridochromeogenes. Conditions: as substrate of PAT (SvPAT).
phosphinothricin N-acetyltransferase (SvPAT), sequence (Q57146 whole entry, looked up): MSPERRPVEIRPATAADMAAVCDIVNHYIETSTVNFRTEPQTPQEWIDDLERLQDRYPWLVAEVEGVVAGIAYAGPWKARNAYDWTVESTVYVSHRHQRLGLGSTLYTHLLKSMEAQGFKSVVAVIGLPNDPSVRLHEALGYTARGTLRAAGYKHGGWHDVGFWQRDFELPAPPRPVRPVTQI
Data set [2] addresses glutamine synthetase (GS) from E. coli (Escherichia coli, UniProt P0A9C5). Briefly: biochemical.
The next data set deals with P. putida Aars1,2. The data set can be described thus: microbe, parasite or virus in culture. The format is cell-based, Pseudomonas putida. Particulars: for IC50: read-out: concentration giving 50% inhibition.
The test system of another data set is Mycobacterium bovis BCG. The data set is classed as cell-based.

Like-named read-outs stand apart in the source and are kept apart here.

In general, Ki refers to a dissociation constant, usually derived from enzyme kinetics or from competition with a known ligand. A high value points to lower affinity. Usually Km stands for the concentration of substrate that gives half-maximal velocity.

PpArsN1, sequence (Q88LK7 1-186): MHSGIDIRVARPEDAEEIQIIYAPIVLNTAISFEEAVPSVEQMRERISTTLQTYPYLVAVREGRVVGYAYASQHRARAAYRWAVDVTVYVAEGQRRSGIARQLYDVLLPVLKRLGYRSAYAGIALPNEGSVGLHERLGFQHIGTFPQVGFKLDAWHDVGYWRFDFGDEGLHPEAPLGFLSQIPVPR
glutamine synthetase (GS) from E. coli, sequence (P0A9C5 2-469): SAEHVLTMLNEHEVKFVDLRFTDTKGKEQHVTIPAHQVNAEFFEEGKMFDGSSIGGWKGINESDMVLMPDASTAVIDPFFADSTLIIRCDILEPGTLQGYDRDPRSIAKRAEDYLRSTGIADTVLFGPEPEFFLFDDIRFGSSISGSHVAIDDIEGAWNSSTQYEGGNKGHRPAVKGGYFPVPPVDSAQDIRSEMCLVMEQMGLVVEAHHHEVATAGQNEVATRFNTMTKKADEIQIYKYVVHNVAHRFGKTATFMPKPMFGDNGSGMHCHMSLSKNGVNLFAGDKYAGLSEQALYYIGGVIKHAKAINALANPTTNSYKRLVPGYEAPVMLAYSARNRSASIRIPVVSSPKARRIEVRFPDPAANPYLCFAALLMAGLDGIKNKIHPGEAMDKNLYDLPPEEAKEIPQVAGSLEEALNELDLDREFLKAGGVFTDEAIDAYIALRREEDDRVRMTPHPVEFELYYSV

On to `CP(=O)(O)CCC(N)C(=O)O` (racemic) [PT, phosphinothricin, reference compound], for which, on PpArsN1, the “PpArsN1 Specific activity” value was 13.9 ± 1.9 nmol/s/mg. For the same molecule, the IC50 worked out at 100 µM in the data set with E. coli AW3110 (Escherichia coli, AW3110, 24 h) and 100 µM in the data set on P. putida Aars1,2 (Pseudomonas putida, 24 h). Moreover, in data set [1], the Kcat turned out to be 3.1 ± 0.0 s⁻¹. The inhibitory constant (Ki) in data set [2] amounted to 0.4 ± 0.15 µM.
With `C[As](=O)(O)CC[C@H](N)C(=O)O` [AST, 2-amino-4-(hydroxymethylarsinoyl) butanoate], on PpArsN1, the “affinity of PpArsN1 compared with PT” value turned out to be 100 fold and the “PpArsN1 Specific activity” value worked out at 49.6 ± 0.8 nmol/s/mg. At PpArsN1 (as substrate of PpArsN1), the Kcat came to 1.7 ± 0.2 s⁻¹ and the Michaelis-Menten constant (Km) amounted to 11 ± 3 µM. In the data set on E. coli AW3110, the “concentration giving nearly complete inhibition” value is 20 µM; the “effectiveness as an antibiotic compared with PT” value is “approximately 30 fold”; the “toxicity (growth inhibition) compared with As(III) and MAs(III)” value is “considerably more inhibitory than inorganic As (III) and is similar to that of highly toxic trivalent methylarsenite (MAs(III))”; the IC50 was approximately 3 µM. The “inhibitory effect on mycobacterial growth” value in the data set with Mycobacterium bovis BCG was “comparable with MSO and much higher than PT”. In data set [1], the Kcat came to 2.3 ± 0.1 s⁻¹ and the Km stood at 12 ± 2 µM. In the data set on P. putida Aars1,2, the “concentration giving nearly complete inhibition” value stood at 20 µM, the “effectiveness as an antibiotic compared with PT” value is “approximately 30 fold” and the IC50 was approximately 3 µM. Besides, the “cytotoxicity in human monocytes” value in the data set with THP-1 cells was “benign and much less toxic compared to inorganic arsenite”.
Turning to “methionine sulfoximine [MSO, reference compound]”, on PpArsN1, the “substrate quality for PpArsN1” value is “poor substrate” and the “PpArsN1 Specific activity” value stood at 2.1 ± 0.1 nmol/s/mg.

Source of the values: patent US12414932B2, “Arsinothricin and methods of treating infections using arsinothricin” (priority 2018, dated 2025).
